These results are taken from paper PMC10833105 (Journal of medicinal chemistry, 2023).

The structures appear in SMILES notation. Read-outs that look alike come from different tables or passages of the source.

Data set [1] in a line: in vitro. As to conditions: PAMPA, pH 7.4.
Data set [2] deals with GABAAR. As to conditions: 3H-flunitrazepam, rat brain extract; for IC50: read-out: GABAAR binding IC50.
Data set [3] relates to guinea pig airway smooth muscle. As to the kind of experiment: Ex vivo airway smooth muscle relaxation, substance P-contracted tracheal rings. The following applies: 25 μM, vs vehicle.
Data set [4] relates to female A/J mice. As to the kind of experiment: Methacholine-induced airway hyperresponsiveness, double chamber plethysmograph. The class given is in vivo, mouse. As to conditions: nebulized 7.2 mg/kg, then five nebulized methacholine challenges, vs vehicle.
Data set [5] relates to female Swiss Webster mice. As to the kind of experiment: Rotarod sensorimotor inhibition. In kind it is in vivo, mouse. As to conditions: diazepam 8 mg/kg. On the technique in general: The rotarod test checks motor coordination on a turning rod.
Data set [6] relates to GABAAR. As to conditions: read-out: GABAAR binding IC50; reported earlier; cited from earlier work.
Data set [7] can be described thus: Microsomal stability phase 1. The class given is in vitro ADME. The following applies: mouse liver S9, NADPH, 10 μM compound.
Data set [8] can be described thus: Metabolic stability phase 2. The class given is in vitro ADME. As to conditions: mouse liver S9, UDP-glucuronic acid, 10 μM compound.
Data set [9] is described as follows: Microsomal stability phase 1. The following applies: human liver S9, NADPH, 10 μM compound. In kind it is in vitro ADME.
The nature of data set [10]: Metabolic stability phase 2. The class given is in vitro ADME. As to conditions: human liver S9, UDP-glucuronic acid, 10 μM compound.
For data set [11] the following is noted: cited from earlier work.
The subject of data set [12] is female Swiss Webster mice. As to conditions: oral dosing up to 1000 mg/kg; cited from earlier work.

In [1], `CCOC(=O)c1ncn2c1C1(CCCCC1)N=C(c1ccccc1F)c1cc(Br)ccc1-2` [4f] showed a Papp of 1 ×10⁻⁶ cm/s. Also, in [2], the “GABAAR binding (in words)” value is “not active” and the half-inhibitory concentration (IC50) was found to be 6220 nM.

In the case of `O=C1Nc2ccc(Cl)cc2C(c2ccccc2F)=NC12CC2` [3g], in [2], the IC50 worked out at 665 nM.

Regarding `O=C1Nc2ccc(Br)cc2C(c2ccccc2F)=NC12CCCC2` [3e], the Papp in data set [1] is 0.158 ×10⁻⁶ cm/s. The “GABAAR binding (in words)” value in data set [2] was “no significant binding”.

Consider `O=C(O)c1ncn2c1C1(CC1)N=C(c1ccccc1F)c1cc(Br)ccc1-2` [5c, 8-Bromo-6-(2-fluorophenyl)-spiro[benzo[f]imidazo[1,5-α][1,4]diazepine-4,1′-cyclopropane]-3-carboxylic Acid], for which the “relaxation of constricted airway smooth muscle” value (“relaxation” below) in [3] (at 30 min) is on record as “significant relaxation”. Moreover, the IC50 in [2] was 9 nM.

As to `CC1(C)N=C(c2ccccc2F)c2cc(Br)ccc2NC1=O` [3a, 7-Bromo-5-(2-fluorophenyl)-3,3-dimethyl-1,3-dihydro-2H-benzo[e][1,4]diazepin-2-one], the IC50 in data set [2] came to 1250 nM.

On to `CC1(C)N=C(c2ccccc2F)c2cc(Br)ccc2-n2cnc(C(=O)O)c21` [5a], for which the “effect on specific airway resistance (sRaw)” value in data set [4] is given as “little to no change of sRaw values”. Moreover, in [2], the “GABAAR binding (in words)” value is listed as “did not show strong GABAAR binding” and the IC50 turned out to be 4050 nM.

The compound `CCOC(=O)c1ncn2c1C1(CC1)N=C(c1ccccc1F)c1cc(Cl)ccc1-2` [4g] gave an apparent permeability coefficient (Papp) in data set [1] of 2.51 ×10⁻⁶ cm/s. Moreover, the “GABAAR binding (in words)” value in data set [2] is “weak GABAAR ligands”.

As to `C#Cc1ccc2c(c1)C(c1ccccc1F)=NC1(CC1)c1c(C(=O)O)ncn1-2` [5h, 8-Ethynyl-6-(2-fluorophenyl)spiro[benzo[f]-imidazo[1,5-α][1,4]diazepine-4,1′-cyclopropane]-3-carboxylic Acid], the “relaxation” value in data set [3] (at 30 min) is on record as “significant relaxation”. The IC50 in [2] was 59 nM.

Take `CCOC(=O)c1ncn2c1C(C)(C)N=C(c1ccccc1F)c1cc(Br)ccc1-2` [4a]: in [2], the “GABAAR binding (in words)” value was “Some activity was retained” and the IC50 turned out to be 733 nM.

In the case of `O=C(O)c1ncn2c1C1(CC1)N=C(c1ccccc1F)c1cc(Cl)ccc1-2` [5g], the “GABAAR binding (in words)” value in [2] is “weak GABAAR ligands”.

The compound `CCOC(=O)c1ncn2c1C1(CCC1)N=C(c1ccccc1F)c1cc(Br)ccc1-2` [4d] had a Papp in [1] of 6.31 ×10⁻⁶ cm/s. Besides, in [2], the “GABAAR binding (in words)” value is “Some activity was retained” and the half-inhibitory concentration (IC50) was 859 nM.

Turning to `CN1C(=O)CN=C(c2ccccc2)c2cc(Cl)ccc21` [diazepam], the “sensorimotor inhibition on rotarod” value in data set [5] is “rapid and significant loss of sensorimotor coordination”.

Consider `O=C(O)c1ncn2c1C1(CCCCC1)N=C(c1ccccc1F)c1cc(Br)ccc1-2` [5f], for which the “relaxation” value in data set [3] (at 30 min) is listed as “significant relaxation”.

Regarding `O=C(O)c1ncn2c1C1(CC1)N=C(c1ccccc1F)c1cc(C3CC3)ccc1-2` [5i], in [2], the “GABAAR binding (in words)” value is “weak GABAAR ligands” and the IC50 came out at 1830 nM.

With `O=C1Nc2ccc(Br)cc2C(c2ccccc2F)=NC12CC2` [3c], in data set [2], the IC50 turned out to be 42 nM.

Regarding `C[C@@H]1N=C(c2ccccc2F)c2cc(Br)ccc2-n2cnc(C(=O)O)c21` [MIDD0301S], the concentration for half-maximal inhibition (IC50) in data set [6] was 25 nM.

Take `C[C@H]1N=C(c2ccccc2F)c2cc(Br)ccc2-n2cnc(C(=O)O)c21` [MIDD0301]: the “remaining percentage of parent compound after 2 h, phase 1” value in data set [7] is 110 ± 14%; in data set [9] it was 98 ± 4%. For the same compound, the “remaining percentage of parent compound after 2 h, phase 2” value in data set [8] is reported as 73 ± 8%; in data set [10] it was 77 ± 3%. For the same compound, the “aqueous solubility (in words)” value is given as “significantly decreased” in [11] (pH values between 3 and 6); “excellent solubility” in data set [11] (strong acidic, neutral and basic conditions). Moreover, in [6], the IC50 was 26 nM. In addition, in data set [12], the “sensorimotor inhibition on rotarod” value is given as “absence of sensorimotor inhibition”.

`CCOC(=O)c1ncn2c1C1(CC1)N=C(c1ccccc1F)c1cc(Br)ccc1-2` [4c, Ethyl 8-bromo-6-(2-fluorophenyl)spiro[benzo[f]imidazo[1,5-α][1,4]diazepine-4,1′-cyclopropane]-3-carboxylate]: the IC50 in data set [2] came to 87 nM.

As for `CCOC(=O)c1ncn2c1C1(CC1)N=C(c1ccccc1F)c1cc(C3CC3)ccc1-2` [4i, Ethyl 8-Cyclopropyl-6-(2-fluorophenyl)spiro-[benzo[f]imidazo[1,5-α][1,4]diazepine-4,1′-cyclopropane]-3-carboxylate], in data set [1], the Papp is 12.6 ×10⁻⁶ cm/s.

With `O=C(O)c1ncn2c1C1(CCC1)N=C(c1ccccc1F)c1cc(Br)ccc1-2` [5d], the “relaxation” value in [3] (at 60 min) is on record as “weak airway smooth muscle relaxation”. Moreover, the IC50 in data set [2] came to 1830 nM.

Consider `O=C1Nc2ccc(Br)cc2C(c2ccccc2F)=NC12CCCCC2` [3f], for which, in data set [1], the apparent permeability (Papp) was 0.0794 ×10⁻⁶ cm/s. In addition, the “GABAAR binding (in words)” value in data set [2] was “no significant binding”.

Consider `O=C1Nc2ccc(Br)cc2C(c2ccccc2F)=NC12CCC2` [3d], for which the Papp in data set [1] is 3.16 ×10⁻⁶ cm/s. Further, in data set [2], the IC50 stood at 2040 nM.

As to `O=C(O)c1ncn2c1C1(CC1)N=C(c1ccccc1F)c1ccccc1-2` [5j, 6-(2-Fluorophenyl)spiro[benzo[f]imidazo[1,5-α][1,4]diazepine-4,1′-cyclopropane]-3-carboxylic Acid], the “relaxation” value in data set [3] (at 30 min) is given as “significant relaxation”. Besides, in data set [2], the IC50 came out at 289 nM.

As to `CCOC(=O)c1ncn2c1C1(CCCC1)N=C(c1ccccc1F)c1cc(Br)ccc1-2` [4e], in [1], the Papp was 1.58 ×10⁻⁶ cm/s. For the same compound, the “GABAAR binding (in words)” value in data set [2] is on record as “not active”.

What is called Papp is the rate of passage across a membrane or cell layer, normalised by area and donor concentration. Read a low Papp as slow passage. Usually IC50 stands for the concentration needed to halve the response being measured.
